According to patent US20230091608A1, “COMPOUND AND DIAGNOSTIC SYSTEM COMPRISING SAID COMPOUND FOR THE GUSTATORY DETECTION OF INFLAMMATIONS IN THE ORAL CAVITY” (Julius-Maximilians-Universitaet Wuerzburg, priority 2019, published 2023):

What follows are molecules tested on aminopeptidase (AP) (assay: Cleavage of [Ia-X] constructs by aminopeptidase (AP), LC/MS for complete degradation).
Type: biochemical
Protocol: To trigger maximum gustatory perception, the last amino acid from the modified denatonium must also be removed by the aminopeptidase.
The resulting constructs were incubated with AP for 24 h and analyzed by LC/MS for complete degradation (Table 2).

Molecule | Detectable after 24 h incubation with AP
NC(=O)C[C@H](N)C(=O)O [Asparagine] | +
N[C@@H](CC(=O)O)C(=O)O [Aspartic acid] | +
N[C@@H](CS)C(=O)O [Cysteine] | −
N[C@@H](Cc1c[nH]c2ccccc12)C(=O)O [Tryptophan] | +
Alanine | −
Arginine | −
Lysine | −
Tyrosine | −

Now from value to molecule:

Detectable after 24 h incubation with AP | Molecule
− | N[C@@H](CCC(=O)O)C(=O)O [Glutamic acid]
+ | NC(=O)CC[C@H](N)C(=O)O [Glutamine]
+ | NCC(=O)O [Glycine]
+ | N[C@@H](Cc1c[nH]cn1)C(=O)O [Histidine]
+ | CC[C@H](C)[C@H](N)C(=O)O [Isoleucine]
− | CC(C)C[C@H](N)C(=O)O [Leucine]
− | CSCC[C@H](N)C(=O)O [Methionine]
− | N[C@@H](Cc1ccccc1)C(=O)O [Phenylalanine]
− | N[C@@H](CO)C(=O)O [Serine]
+ | C[C@@H](O)[C@H](N)C(=O)O [Threonine]
+ | CC(C)[C@H](N)C(=O)O [Valine]
+ | Proline
